Columns and labels:
Type in all cases: functional, organism-based
[1] = test system: Human immunodeficiency virus 1; experiment: Antiviral activity against HIV-1 harboring RT L100I mutant infected in human MT4 cells assessed as protection against virus-induced cytopathogenicity after 5 days by MTT assay; details: Human immunodeficiency virus 1, MT4, 120 h
[2] = test system: Human immunodeficiency virus 1; experiment: Antiviral activity against HIV-1 strain IIIB infected in human MT4 cells assessed as protection against virus-induced cytopathicity after 5 days by MTT assay; details: Human immunodeficiency virus 1, IIIB, MT4, 120 h
[3] = test system: Human immunodeficiency virus 1; experiment: Antiviral activity against HIV-1 harboring RT Y181C mutant infected in human MT4 cells assessed as protection against virus-induced cytopathogenicity after 5 days by MTT assay; details: Human immunodeficiency virus 1, MT4, 120 h
[4] = test system: Human immunodeficiency virus 1; experiment: Antiviral activity against HIV-1 harboring RT K103N mutant infected in human MT4 cells assessed as protection against virus-induced cytopathogenicity after 5 days by MTT assay; details: Human immunodeficiency virus 1, MT4, 120 h
[5] = test system: Human immunodeficiency virus 1; experiment: Antiviral activity against HIV-1 harboring RT F227L/V106A mutant infected in human MT4 cells assessed as protection against virus-induced cytopathogenicity after 5 days by MTT assay; details: Human immunodeficiency virus 1, MT4, 120 h
[6] = test system: Human immunodeficiency virus 1; experiment: Antiviral activity against NNRTI-resistant HIV-1 RES056 harboring RT K103N/Y181C mutant infected in human MT4 cells assessed as protection against virus-induced cytopathogenicity after 5 days by MTT assay; details: Human immunodeficiency virus 1, RES056, MT4, 120 h
[7] = test system: Human immunodeficiency virus 1; experiment: Antiviral activity against HIV-1 harboring RT Y188L mutant infected in human MT4 cells assessed as protection against virus-induced cytopathogenicity after 5 days by MTT assay; details: Human immunodeficiency virus 1, MT4, 120 h
[8] = test system: Human immunodeficiency virus 1; experiment: Antiviral activity against HIV-1 harboring RT E138K mutant infected in human MT4 cells assessed as protection against virus-induced cytopathogenicity after 5 days by MTT assay; details: Human immunodeficiency virus 1, MT4, 120 h

SMILES	EC50 [1]	EC50 [2]	EC50 [3]	EC50 [4]	EC50 [5]	EC50 [6]	EC50 [7]	EC50 [8]
Cc1cc(C#N)cc(C)c1Oc1nc(NC2CCN(Cc3ccc(C(N)=O)cc3)CC2)ncc1-c1ccco1	38.2 nM	5.78 nM	14.9 nM	3.73 nM	161 nM	254 nM	23.3 nM	11.9 nM
Cc1cc(/C=C/C#N)cc(C)c1Oc1nc(NC2CCN(Cc3ccc(S(C)(=O)=O)cc3)CC2)ncc1-c1ccnc(Cl)c1	–	4.23 nM	–	–	–	33.3 nM	–	–
Cc1cc(/C=C/C#N)cc(C)c1Oc1nc(NC2CCN(Cc3ccc(S(C)(=O)=O)cc3)CC2)ncc1-c1ccnc(F)c1	–	4.75 nM	–	–	–	25.1 nM	–	–
Cc1cc(C#N)cc(C)c1Oc1nc(NC2CCN(Cc3ccc(S(C)(=O)=O)cc3)CC2)ncc1-c1ccncc1	17.4 nM	5.93 nM	10.8 nM	4.4 nM	79.4 nM	244 nM	18.5 nM	9.19 nM
Cc1cc(-c2cnc(NC3CCN(Cc4ccc(C(N)=O)cc4)CC3)nc2Oc2c(C)cc(/C=C/C#N)cc2C)ccn1	–	3.53 nM	–	–	–	18.1 nM	–	–
Cc1cc(/C=C/C#N)cc(C)c1Oc1nc(NC2CCN(Cc3ccc(S(C)(=O)=O)cc3)CC2)ncc1-c1ccc(N)nc1	–	5.29 nM	–	–	–	26.2 nM	–	–
Cc1cc(C#N)cc(C)c1Oc1nc(NC2CCN(Cc3ccc(C(N)=O)cc3)CC2)ncc1-c1ccccc1	151 nM	5.11 nM	28.7 nM	9.15 nM	393 nM	562 nM	30.5 nM	17.1 nM
Cc1cc(C#N)cc(C)c1Oc1nc(NC2CCN(Cc3ccc(S(N)(=O)=O)cc3)CC2)ncc1-c1ccco1	20.9 nM	4.4 nM	24.8 nM	5.33 nM	128 nM	218 nM	36.5 nM	24.5 nM
Cc1cc(/C=C/C#N)cc(C)c1Oc1nc(NC2CCN(Cc3ccc(C(N)=O)cc3)CC2)ncc1-c1ccnc(Cl)c1	–	4.14 nM	–	–	–	81.7 nM	–	–
Cc1cc(C#N)cc(C)c1Oc1nc(NC2CCN(Cc3ccc(S(C)(=O)=O)cc3)CC2)ncc1-c1ccoc1	14.8 nM	4.75 nM	14.4 nM	4.39 nM	41.5 nM	172 nM	24.2 nM	15.3 nM
COc1cc(-c2cnc(NC3CCN(Cc4ccc(S(N)(=O)=O)cc4)CC3)nc2Oc2c(C)cc(/C=C/C#N)cc2C)ccn1	–	5.75 nM	–	–	–	34.3 nM	–	–
Cc1cc(/C=C/C#N)cc(C)c1Oc1nc(NC2CCN(Cc3ccc(S(C)(=O)=O)cc3)CC2)ncc1-c1ccc(F)nc1	–	6.04 nM	–	–	–	25.5 nM	–	–
Cc1cc(/C=C/C#N)cc(C)c1Oc1nc(NC2CCN(Cc3ccc(S(N)(=O)=O)cc3)CC2)ncc1-c1ccc(N)nc1	–	5.8 nM	–	–	–	33.5 nM	–	–
Cc1cc(/C=C/C#N)cc(C)c1Oc1nc(NC2CCN(Cc3ccc(S(C)(=O)=O)cc3)CC2)ncc1-c1ccnc(Br)c1	–	4.52 nM	–	–	–	33.2 nM	–	–
Cc1cc(C#N)cc(C)c1Oc1nc(NC2CCN(Cc3ccc(S(N)(=O)=O)cc3)CC2)ncc1-c1ccccc1	53.2 nM	5.14 nM	26.2 nM	7.74 nM	219 nM	427 nM	33.2 nM	24.5 nM
COc1cc(-c2cnc(NC3CCN(Cc4ccc(S(C)(=O)=O)cc4)CC3)nc2Oc2c(C)cc(/C=C/C#N)cc2C)ccn1	–	3.95 nM	–	–	–	30 nM	–	–
Cc1cc(/C=C/C#N)cc(C)c1Oc1nc(NC2CCN(Cc3ccc(S(N)(=O)=O)cc3)CC2)ncc1-c1ccnc(Br)c1	–	4.42 nM	–	–	–	26.9 nM	–	–

SMILES	EC50 [1]	EC50 [2]	EC50 [3]	EC50 [4]	EC50 [5]	EC50 [6]	EC50 [7]	EC50 [8]
Cc1cc(-c2cnc(NC3CCN(Cc4ccc(S(C)(=O)=O)cc4)CC3)nc2Oc2c(C)cc(/C=C/C#N)cc2C)ccn1	–	4.55 nM	–	–	–	31.5 nM	–	–
Cc1cc(/C=C/C#N)cc(C)c1Oc1nc(NC2CCN(Cc3ccc(C(N)=O)cc3)CC2)ncc1-c1ccnc(F)c1	–	8.26 nM	–	–	–	53.4 nM	–	–
Cc1cc(C#N)cc(C)c1Oc1nc(NC2CCN(Cc3ccc(S(C)(=O)=O)cc3)CC2)ncc1-c1ccccc1	71.7 nM	4.93 nM	33.7 nM	11.7 nM	218 nM	590 nM	35.5 nM	32.1 nM
Cc1cc(/C=C/C#N)cc(C)c1Oc1nc(NC2CCN(Cc3ccc(S(C)(=O)=O)cc3)CC2)ncc1-c1ccncc1	–	5.74 nM	–	–	–	26.3 nM	–	–
COc1cc(-c2cnc(NC3CCN(Cc4ccc(C(N)=O)cc4)CC3)nc2Oc2c(C)cc(/C=C/C#N)cc2C)ccn1	–	7.28 nM	–	–	–	40.3 nM	–	–
Cc1cc(C#N)cc(C)c1Oc1nc(NC2CCN(Cc3ccc(S(C)(=O)=O)cc3)CC2)ncc1-c1cccs1	8.93 nM	4.01 nM	11.6 nM	5.71 nM	38.4 nM	134 nM	15.4 nM	6.27 nM
Cc1cc(-c2cnc(NC3CCN(Cc4ccc(S(N)(=O)=O)cc4)CC3)nc2Oc2c(C)cc(/C=C/C#N)cc2C)ccn1	–	4.16 nM	–	–	–	23 nM	–	–
Cc1cc(/C=C/C#N)cc(C)c1Oc1nc(NC2CCN(Cc3ccc(S(N)(=O)=O)cc3)CC2)ncc1-c1ccnc(F)c1	–	6.37 nM	–	–	–	38.8 nM	–	–
Cc1cc(C#N)cc(C)c1Oc1nc(NC2CCN(Cc3ccc(S(N)(=O)=O)cc3)CC2)ncc1-c1ccncc1	10.6 nM	2.59 nM	6.93 nM	2.33 nM	45.9 nM	111 nM	21.4 nM	8.12 nM
Cc1cc(C#N)cc(C)c1Oc1nc(NC2CCN(Cc3ccc(C(N)=O)cc3)CC2)ncc1-c1ccsc1	62.6 nM	4.22 nM	26.4 nM	5.52 nM	325 nM	415 nM	30 nM	22 nM
Cc1cc(C#N)cc(C)c1Oc1nc(NC2CCN(Cc3ccc(C(N)=O)cc3)CC2)ncc1-c1cccs1	14.7 nM	3.34 nM	10.2 nM	5.15 nM	75.4 nM	115 nM	17.9 nM	8.85 nM
Cc1cc(/C=C/C#N)cc(C)c1Oc1nc(NC2CCN(Cc3ccc(C(N)=O)cc3)CC2)ncc1-c1ccnc(Br)c1	–	7 nM	–	–	–	32.2 nM	–	–
Cc1cc(/C=C/C#N)cc(C)c1Oc1nc(NC2CCN(Cc3ccc(S(N)(=O)=O)cc3)CC2)ncc1-c1ccnc(Cl)c1	–	4.3 nM	–	–	–	20.9 nM	–	–
Cc1cc(C#N)cc(C)c1Oc1nc(NC2CCN(Cc3ccc(S(N)(=O)=O)cc3)CC2)ncc1-c1ccoc1	13.6 nM	2.51 nM	9.35 nM	3 nM	63.2 nM	161 nM	15.3 nM	13 nM
Cc1cc(C#N)cc(C)c1Oc1nc(NC2CCN(Cc3ccc(S(C)(=O)=O)cc3)CC2)ncc1-c1ccsc1	20.3 nM	4.92 nM	11.7 nM	4.75 nM	67.5 nM	253 nM	27.2 nM	10.6 nM
Cc1cc(C#N)cc(C)c1Oc1nc(Nc2ccc(C#N)cc2)nc(N)c1Br [ETRAVIRINE]	–	–	13.6 nM	–	–	–	13.7 nM	7.17 nM

Reference: ChEMBL document CHEMBL4834412, “2,4,5-Trisubstituted Pyrimidines as Potent HIV-1 NNRTIs: Rational Design, Synthesis, Activity Evaluation, and Crystallographic Studies” (J Med Chem, 2021)
